Results published in ChEMBL document CHEMBL5647694, “Novel orally bioavailable EZH1/2 dual inhibitors with greater antitumor efficacy than an EZH2 selective inhibitor” (Cancer Sci, 2017).
The source made the active and inactive calls. The calls are words filed in the database; no cut-off is given here.

Tests used:
RS4-11 = assay: Antiproliferative activity against human RS4-11 cells assessed as inhibition of cell growth; type: functional, cell-based
MV4-11 = assay: Antiproliferative activity against human MV4-11 cells assessed as inhibition of cell growth; type: functional, cell-based
KARPAS-422 [1] = assay: Antitumor activity against human KARPAS-422 cells xenografted in FOX CHASE SCID C.B.17/Icr-scid/scid Jc1 mouse assessed as inhibition of tumor growth administered orally BID for 16 days; type: functional; conditions: dose lower 40.0 mg/kg, dose upper […], route po, time 16.0 day
KARPAS-422 [2] = assay: Antitumor activity against human KARPAS-422 cells xenografted in FOX CHASE SCID C.B.17/Icr-scid/scid Jc1 mouse assessed as inhibition of tumor growth at 160 mg/kg, po BID for 16 days; type: functional, organism-based; conditions: time 16.0 day
Mus musculus = assay: In vivo inhibition of EZH1/2 in FOX CHASE SCID C.B.17/Icr-scid/scid Jc1 mouse xenografted with human KARPAS-422 cells assessed as decrease in H3K27me3 level in tumor at 40 to 160 mg/kg, po BID for 16 days and measured 1 day after cessation of drug dosing; type: functional, organism-based; conditions: dose lower 40.0 mg/kg, dose upper […], time 16.0 day
[3] = Cmax in BALB/c mouse at 40 mg/kg administered as single dose; type: ADME, organism-based; conditions: in vivo, route po
[4] = AUC (0 to 24 hrs) in BALB/c mouse at 40 mg/kg administered as single dose; type: ADME, organism-based; conditions: in vivo, route po
G-401 = assay: Antitumor activity against human G-401 cells xenografted in female CAnN.Cg-Foxn1nu/CrlCrljFoxn1nu/Foxn1nu mouse assessed as suppression of tumor growth at 50 mg/kg, po qd for 12 days; type: functional, organism-based; conditions: time 12.0 day
NCI-N87 [5] = assay: Antitumor activity against human NCI-N87 cells xenografted in female CAnN.Cg-Foxn1nu/CrlCrljFoxn1nu/Foxn1nu mouse assessed as tumor regression at 50 mg/kg, po qd for 28 days; type: functional, organism-based; conditions: time 28.0 day
NCI-N87 [6] = assay: Antitumor activity against human NCI-N87 cells xenografted in female CAnN.Cg-Foxn1nu/CrlCrljFoxn1nu/Foxn1nu mouse assessed as tumor regression at 50 mg/kg, po qd for 28 days and measured for 40 days after drug dosing cessation; type: functional, organism-based; conditions: time 28.0 day

With `CCCc1cc(C)[nH]c(=O)c1CNC(=O)c1cc(-c2ccc(N3CCN(C(C)C)CC3)nc2)cc2c1cnn2C(C)C` the EC50 (RS4-11) was 1960 nM and the EC50 (MV4-11) was 525 nM.
With `CCN1CCN(c2ccc(-c3cc(C(=O)NCc4c(C)cc(C)[nH]c4=O)c(C)c4c3O[C@](C)(CN3CCOCC3)O4)cn2)CC1` the Activity (KARPAS-422 [1]) was “Dose-Dependent Effect”, the Activity (KARPAS-422 [2]) was “Active” and the inhibition (Mus musculus) was “Active”. It also gave a Cmax [3] of 6 µM and an AUC(0-t) [4] of 45 µM·h.
With `Cc1cc(C)c(CNC(=O)c2cc(Br)c3c(c2C)OC(C)(C2CCC(N(C)C)CC2)O3)c(=O)[nH]1` (stereo not given) the Activity (G-401) was “Active”, the Activity (NCI-N87 [5]) was “inactive” and the Activity (NCI-N87 [6]) was “Active”.
